Test results as given in paper PMC10298926, “Biophysical Characterization of the Binding Mechanism between the MATH Domain of SPOP and Its Physiological Partners” (International Journal of Molecular Sciences, 2023).
Where a SMILES comes first, the peptide text is derived from it.

Molecular target: T1, SPOP MATH K130A (Homo sapiens, UniProt O43791, C159S/C23S/C44S/C68S/C93S/K129A)
T1 construct: engineered MATH domain of SPOP protein (residues 1–182); His-tag; made in house; host or cells: Escherichia coli BL21 (DE3)
T1 sequence (O43791 1-182 C23S/C44S/C68S/C93S/K129A/C159S): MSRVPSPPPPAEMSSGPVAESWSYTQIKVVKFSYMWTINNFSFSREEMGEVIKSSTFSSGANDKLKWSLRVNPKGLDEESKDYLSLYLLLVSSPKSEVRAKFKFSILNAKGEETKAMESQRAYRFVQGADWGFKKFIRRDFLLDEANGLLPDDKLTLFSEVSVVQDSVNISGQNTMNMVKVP
Assay: Stopped-flow displacement
Format: binding
From the text: To quantitatively address the role of specific residues in the binding mechanism of SPOP MATH, we resorted to taking advantage of the site-directed mutagenesis and generated ten site-directed mutants corresponding to the residues located in the binding pocket of the SPOP MATH domain. In particular, we produced a set of single mutants where residues R71, Y88, F103, Y124, F125, K130, D131, W132, F134, and K135 were substituted with alanine.
Microscopic dissociation rate constants (koff) were directly measured by performing displacement experiments on an Applied Photophysics DX-17MV stopped-flow apparatus (Applied Photophysics). A preincubated complex of MATH domain and dansylated peptides at a constant concentration (both 8 µM) was rapidly mixed with an excess of nondansylated peptides (50 μM). The samples were excited at 280 nm and fluorescence emission was collected by using a 330 ± 30 nm bandpass filter. The experiments were performed at 298 K in the same buffer used for the binding experiments. The observed rate constants were calculated from the average of five single traces. The observed kinetics were consistent with a single exponential decay.

CC(C)[C@H](NC(=O)[C@H](CCC(=O)O)NC(=O)[C@H](CC(=O)O)NS(=O)(=O)c1cccc2c(N(C)C)cccc12)C(=O)N[C@H](C(=O)N[C@@H](CO)C(=O)N[C@H](C(=O)N[C@H](C(=O)N[C@@H](CO)C(=O)N[C@@H](CO)C(=O)N[C@@H](CO)C(=O)O)[C@@H](C)O)[C@@H](C)O)[C@@H](C)O [Puc] (HELM PEPTIDE1{[CN(C)c1cccc2c(S(=O)(=O)[*:2])cccc12].D.E.V.T.S.T.T.S.S.S}$$$$V2.0)
koff: 123 ± 16 s⁻¹
